Square brackets hold non-standard residues; d marks the D form. Peptide text beside a SMILES is read from it. Arg(Me) = CNC(=N)NCCC[C@H](N)C(=O)O
Key:
[1] = In vitro stability experiment of cell-penetrating peptides in human plasma
Method: (§1) 5 μL of stock solution (10 mM) was diluted with 495 μL of 0.05 M sodium phosphate buffer to 100 μM of dosing solution. The final concentration of tested drug for incubation was 10 μM.
(§2) A certain volume (e.g., 27 μL or 24 μL) of plasma was added into a 96-well plate. An appropriate volume of the internal standard working solution (e.g., 150 μL) was immediately added to precipitate. […] This was performed in duplicate.
(§3) Then, an appropriate amount of plasma (e.g., 27 μL or 24 μL) was added at the designed time points (e.g., 5 min, 15 min, 30 min, 60 min, and 120 min, etc.), and the parallel replicate wells were performed at each time point. […] The reaction was terminated by adding an appropriate amount of internal standard working solution (e.g., 150 μL) at the end of the time, and the mixture was mixed thoroughly.
(§4) The mixture was centrifuged at 4000 rpm for 15 min. A certain amount of the supernatant was taken, mixed with a certain amount of water, and then subjected to LC/MS/MS analysis. LC-MS detection conditions were as follows: • Chromatography column: YMC Triart C18, 50*3.0 mm, 2.1 μm. • Mobile phase: Gradient elution was performed using water (0.1% formic acid)-acetonitrile according to the table below.
(§5) The relative content of drug at each time point was calculated using the initial 0 point as 100%. The half-life of the drug was calculated by plotting “relative drug content” against “incubation time” using GraphPad Prism 5 software.

in vitro = settings: human, plasma
Method: (§6) • Plasma: Human plasma is commercially available. • Reagents: DMSO (dimethyl sulfoxide), disodium hydrogen phosphate, sodium dihydrogen phosphate, methanol, formic acid, and propranolol (internal standard) are commercially available. • Instrument: AB SCIEX QTRAP 5500+.
as §1, §2, §3, §4, §5

[2] = Toxicological experiment: serum UREA and CREA after 5 days of i.v. dosing; type: in vivo, SD rats
Method: The compounds of Examples 1-8 were accurately weighed into suitable EP tubes, and the vehicle (saline) was added to formulate a solution of a concentration of 15 mg/mL. The solution was filtered using a 0.2 μm filter for future use.
A total of 18 male SD rats of 6-7 weeks of age were used for test. After the animal quarantine and acclimatization period, the animals were randomly divided into 6 groups according to their body weights measured before grouping, vehicle control group (saline) as well as example compounds groups, 3 animals/group. Using the above prepared solution, the animal was administered intravenously via the tail vein at a dosage of 30 mg/kg and a dosing volume of 2 mL/kg. The dosing volume for each animal was calculated according to the body weight. Administration was performed once daily for 5 consecutive days. After 2 h of administration on day 5, the animals were deeply anesthetized by intraperitoneal injection of sodium pentobarbital. The thoracic cavity was opened, and blood was collected from the abdominal aorta into blood collection tubes containing inert separation gel and coagulant. The serum was collected by centrifugation (4000 rpm, 10 min) after about 1 h of resting. The concentrations of UREA and CREA in the serum were detected using a biochemical analyzer. The percentage change of each example compound relative to the vehicle control group was calculated using the formula: %=(Concentration of example compound−Concentration of vehicle control group)/Concentration of vehicle control group.

[3] = In vitro plasma stability experiment (compounds), without or with tPA; settings: human, 37° C., initial concentration 10 μM
Method: as §6, §1, §2, §3, §4, §5

PDZ1-2 of PSD95 = PDZ1-2 of PSD95 (Homo sapiens, UniProt P78352); experiment: Fluorescence polarization competition binding assay of PDZ1-2 with probe 5-FAM-NA-1
[4] = plasma, With tPA T1/2, cell-penetrating peptide, human plasma, initial concentration 10 μM, with tPA
[5] = plasma, Without tPA T1/2, cell-penetrating peptide, human plasma, initial concentration 10 μM, without tPA
[6] = male SD rats, 30 mg/kg i.v. once daily for 5 days, serum 2 h after dosing on day 5
[7] = With tPA T1/2, human plasma, with rt-PA […]
[8] = Without tPA T1/2, human plasma, without tPA

PDZ1-2 of PSD95, sequence (P78352 61-249 limits assumed): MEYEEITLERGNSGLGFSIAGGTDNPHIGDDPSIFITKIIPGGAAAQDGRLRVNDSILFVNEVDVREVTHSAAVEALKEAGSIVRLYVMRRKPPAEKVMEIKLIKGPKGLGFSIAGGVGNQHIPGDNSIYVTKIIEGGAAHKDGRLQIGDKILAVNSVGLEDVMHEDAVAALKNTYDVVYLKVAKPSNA

With `CNC(=N)NCCC[C@H](NC(=O)[C@H](CCC(N)=O)NC(=O)[C@@H](CCCNC(=N)N)NC(=O)[C@H](CCCNC(=N)N)NC(=O)[C@H](CCCCN)NC(=O)[C@H](CCCCN)NC(=O)[C@@H](CCCNC(=N)N)NC(=O)CNC(=O)[C@@H](N)Cc1ccc(O)cc1)C(=O)N[C@@H](CCCNC(=N)N)C(=O)N[C@@H](CCCNC(=N)N)C(=O)O` [TAT-5] the half-life at 10 μM [1, 4] was 12.3 h and the half-life at 10 μM [1, 5] was greater than 33.3 h.
Work on `CC[C@H](C)[C@H](NC(=O)[C@H](CO)NC(=O)[C@H](CO)NC(=O)[C@H](CC(C)C)NC(=O)[C@@H](CCCCN)NC(=O)[C@H](CCCNC(=N)N)NC(=O)[C@H](CCCNC(=N)N)NC(=O)[C@H](CCCNC(=N)NC)NC(=O)[C@H](CCC(=O)O)NC(=O)[C@@H](CCCNC(=N)N)NC(=O)[C@H](CCCNC(=N)N)NC(=O)[C@H](CCCCN)NC(=O)[C@H](CCCCN)NC(=O)[C@@H](CCCNC(=N)N)NC(=O)CNC(=O)[C@@H](N)Cc1ccc(O)cc1)C(=O)N[C@@H](CCC(=O)O)C(=O)N[C@@H](CO)C(=O)N[C@@H](CC(=O)O)C(=O)N[C@H](C(=O)O)C(C)C` [Compound I1] (H-YG[dR]KKR[dR]E[Arg(Me)]RR[dK]LSSIESDV-OH) yielded a half-life (in vitro; With tPA T1/2) of 9.18 h and a half-life (in vitro; Without tPA T1/2) of 18.6 h.
With `CC[C@H](C)[C@H](NC(=O)CCOCCOCCN(CCOCCOCCC(=O)N[C@H](C(=O)N[C@@H](CCC(=O)O)C(=O)N[C@H](C(=O)N[C@@H](CC(=O)O)C(=O)N[C@H](C(=O)O)C(C)C)[C@@H](C)O)[C@@H](C)CC)C(=O)[C@H](CCCNC(=N)N)NC(=O)[C@H](CCCNC(=N)N)NC(=O)[C@@H](CCCNC(=N)N)NC(=O)[C@H](CCC(=O)O)NC(=O)[C@@H](CCCNC(=N)N)NC(=O)[C@H](CCCNC(=N)N)NC(=O)[C@H](CCCCN)NC(=O)[C@H](CCCCN)NC(=O)[C@@H](CCCNC(=N)N)NC(=O)CNC(=O)[C@@H](N)Cc1ccc(O)cc1)C(=O)N[C@@H](CCC(=O)O)C(=O)N[C@H](C(=O)N[C@@H](CC(=O)O)C(=O)N[C@H](C(=O)O)C(C)C)[C@@H](C)O` [Compound 65] the “CREA, percentage change compared to vehicle control group” value [2, 6] was −3.3%, the “UREA, percentage change compared to vehicle control group” value [2, 6] was 23.7% and the half-life at 10 μM [3, 7] was 10.5 h. It also gave a half-life at 10 μM [3, 8] greater than 33.3 h.
Compound `CC[C@H](C)[C@H](NC(=O)[C@H](CO)NC(=O)[C@H](CO)NC(=O)[C@H](CC(C)C)NC(=O)[C@@H](CCCCN)NC(=O)[C@H](CCCNC(=N)N)NC(=O)[C@H](CCCNC(=N)N)NC(=O)[C@H](CCCNC(=N)NC)NC(=O)[C@H](CCC(N)=O)NC(=O)[C@@H](CCCNC(=N)N)NC(=O)[C@H](CCCNC(=N)N)NC(=O)[C@H](CCCCN)NC(=O)[C@H](CCCCN)NC(=O)[C@](C)(CCCNC(=N)N)NC(=O)CNC(=O)[C@@H](N)Cc1ccc(O)cc1)C(=O)N[C@@H](CCC(=O)O)C(=O)N[C@@H](CO)C(=O)N[C@@H](CC(=O)O)C(=O)N[C@H](C(=O)O)C(C)C` (relative stereo) [Compound I13] has an IC50 (PDZ1-2 of PSD95) of 6.33 µM, a half-life at 10 μM [3, 7] of 14.5 h and a half-life at 10 μM [3, 8] of 10.7 h.
`CC[C@H](C)[C@H](NC(=O)[C@H](CO)NC(=O)[C@H](CO)NC(=O)[C@H](CC(C)C)NC(=O)[C@@H](CCCCN)NC(=O)[C@H](CCCNC(=N)N)NC(=O)[C@H](CCCNC(=N)N)NC(=O)[C@H](CCCNC(=N)NC)NC(=O)[C@H](CCC(=O)O)NC(=O)[C@@H](CCCNC(=N)N)NC(=O)[C@H](CCCNC(=N)N)NC(=O)[C@H](CCCCN)NC(=O)[C@H](CCCCN)NC(=O)[C@](C)(CCCNC(=N)N)NC(=O)CNC(=O)[C@@H](N)Cc1ccc(O)cc1)C(=O)N[C@@H](CCC(=O)O)C(=O)N[C@@H](CO)C(=O)N[C@@H](CC(=O)O)C(=O)N[C@H](C(=O)O)C(C)C` (relative stereo) [Compound I15] gave an IC50 (PDZ1-2 of PSD95) of 7.89 µM, a half-life (in vitro; With tPA T1/2) of 27.2 h and a half-life (in vitro; Without tPA T1/2) greater than 33.3 h.
`N=C(N)NCCC[C@H](NC(=O)[C@H](CCCNC(=N)N)NC(=O)[C@H](CCCNC(=N)N)NC(=O)[C@H](CCC(N)=O)NC(=O)[C@H](CCCNC(=N)N)NC(=O)[C@H](CCCNC(=N)N)NC(=O)[C@H](CCCCN)NC(=O)[C@H](CCCCN)NC(=O)[C@H](CCCNC(=N)N)NC(=O)CNC(=O)[C@@H](N)Cc1ccc(O)cc1)C(=O)O` [TAT-1, reference compound] showed a half-life at 10 μM [1, 5] of 1.52 h.
For `CC[C@H](C)[C@H](NC(=O)[C@H](CO)NC(=O)[C@H](CO)NC(=O)[C@H](CC(C)C)NC(=O)[C@@H](CCCCN)NC(=O)[C@H](CCCNC(=N)N)NC(=O)[C@H](CCCNC(=N)N)NC(=O)[C@@H](CCCNC(=N)N)NC(=O)[C@H](CCC(N)=O)NC(=O)[C@@H](CCCNC(=N)N)NC(=O)[C@H](CCCNC(=N)N)NC(=O)[C@H](CCCCN)NC(=O)[C@H](CCCCN)NC(=O)[C@@H](CCCNC(=N)N)NC(=O)CNC(=O)[C@@H](N)Cc1ccc(O)cc1)C(=O)N[C@@H](CCC(=O)O)C(=O)N[C@@H](CO)C(=O)N[C@@H](CC(=O)O)C(=O)N[C@H](C(=O)O)C(C)C` [NoNo-42, reference compound] (H-YG[dR]KKR[dR]Q[dR]RR[dK]LSSIESDV-OH; N-terminus and C-terminus assumed), the IC50 (PDZ1-2 of PSD95) was 9.71 µM, the “CREA, percentage change compared to vehicle control group” value ([2]; rat, in vivo, iv, 30 mg/kg) was 308.8% and the “UREA, percentage change compared to vehicle control group” value ([2]; rat, in vivo, iv, 30 mg/kg) was 237.9%. It also gave a half-life at 10 μM (in vitro) of 6.88 h.
Work on `N=C(N)NCCC[C@H](NC(=O)[C@@H](CCCNC(=N)N)NC(=O)[C@H](CCC(N)=O)NC(=O)[C@@H](CCCNC(=N)N)NC(=O)[C@H](CCCNC(=N)N)NC(=O)[C@H](CCCCN)NC(=O)[C@H](CCCCN)NC(=O)[C@@H](CCCNC(=N)N)NC(=O)CNC(=O)[C@@H](N)Cc1ccc(O)cc1)C(=O)O` [TAT-3] (H-YG[dR]KKR[dR]Q[dR]R-OH) yielded a half-life at 10 μM ([1]; plasma) of 21.7 h and a half-life at 10 μM ([1]; plasma with added rt-PA) of 27.5 h.
Compound `CC[C@H](C)[C@H](NC(=O)CCOCCOCCN(CCOCCOCCC(=O)N[C@H](C(=O)N[C@@H](CCC(=O)O)C(=O)N[C@H](C(=O)N[C@@H](CC(=O)O)C(=O)N[C@H](C(=O)O)C(C)C)[C@@H](C)O)[C@@H](C)CC)C(=O)[C@H](CCCNC(=N)N)NC(=O)[C@H](CCCNC(=N)N)NC(=O)[C@@H](CCCNC(=N)N)NC(=O)[C@H](CCC(N)=O)NC(=O)[C@@H](CCCNC(=N)N)NC(=O)[C@H](CCCNC(=N)N)NC(=O)[C@H](CCCCN)NC(=O)[C@H](CCCCN)NC(=O)[C@@H](CCCNC(=N)N)NC(=O)CNC(=O)[C@@H](N)Cc1ccc(O)cc1)C(=O)N[C@@H](CCC(=O)O)C(=O)N[C@H](C(=O)N[C@@H](CC(=O)O)C(=O)N[C@H](C(=O)O)C(C)C)[C@@H](C)O` [Compound 43] has a half-life (in vitro; With tPA T1/2, human plasma, 37° C., initial concentration 10 μM, with rt-PA […]) of 20.5 h and a half-life (in vitro; Without tPA T1/2, human plasma, 37° C., initial concentration 10 μM, without tPA) greater than 33.3 h.
`N=C(N)NCCC[C@H](NC(=O)[C@H](CCCNC(=N)N)NC(=O)[C@@H](CCCNC(=N)N)NC(=O)[C@H](CCC(=O)O)NC(=O)[C@@H](CCCNC(=N)N)NC(=O)[C@H](CCCNC(=N)N)NC(=O)[C@H](CCCCN)NC(=O)[C@H](CCCCN)NC(=O)[C@@H](CCCNC(=N)N)NC(=O)CNC(=O)[C@@H](N)Cc1ccc(O)cc1)C(=O)O` [TAT-4] showed a half-life at 10 μM [1, 4] of 14.9 h and a half-life at 10 μM [1, 5] of 11.9 h.
Compound `CNC(=N)NCCC[C@H](NC(=O)[C@H](CCC(=O)O)NC(=O)[C@@H](CCCNC(=N)N)NC(=O)[C@H](CCCNC(=N)N)NC(=O)[C@H](CCCCN)NC(=O)[C@H](CCCCN)NC(=O)[C@@H](CCCNC(=N)N)NC(=O)CNC(=O)[C@@H](N)Cc1ccc(O)cc1)C(=O)N[C@@H](CCCNC(=N)N)C(=O)N[C@@H](CCCNC(=N)N)C(=O)O` [TAT-6] has a half-life at 10 μM [1, 4] of 4.3 h and a half-life at 10 μM [1, 5] of 2.83 h.
